Assay results published in patent publication EP4748847A1, “PEPTIDE COMPLEX HAVING VEGFR -2 AGONIST ACTIVITY” (Peptidream Inc, priority 2023, dated 2025).
*1 amine or outer side, *2 acyl side, *3 side chain or, on linkers, in order; H or OH if unused. Where a SMILES comes first, the peptide text is derived from it. Bridges are numbered along the chain shown (N, C = ends). Roman numbers before positions name the chains, in order. [ ]: non-standard residue; d: D form. The star is where a group is joined. CO(CH2)2(OCH2CH2)17CO = O=C(CCOCCOCCOCCOCCOCCOCCOCCOCCOCCOCCOCCOCCOCCOCCOCCOCCOCCC(=O)[*:2])[*:1]; PEG12 = NCCOCCOCCOCCOCCOCCOCCOCCOCCOCCOCCOCCOCCC(=O)O; Phe(4-guanidino) = N=C(N)Nc1ccc(C[C@H](N)C(=O)O)cc1; hTyr = N[C@@H](CCc1ccc(O)cc1)C(=O)O; Chg = N[C@H](C(=O)O)C1CCCCC1; Tle = CC(C)(C)[C@H](N)C(=O)O; Carboxymethyl = O=C(O)C*

Key:
VEGFR-2 [1] = biological target: T1, VEGFR-2 (Homo sapiens, UniProt P35968); assay: pVEGFR AlphaLISA assay (VEGFR-2 phosphorylation, p-Tyr1175) in HUVECs; format: cell-based; details: 10 minutes stimulation, % activity, maximum VEGF165a signal = 100%, unstimulated = 0%, peptide 10, 100 nM (dimer structures 2-41)
T1 construct: endogenous in cells; host or cells: HUVEC
T1 sequence (P35968 20-1356): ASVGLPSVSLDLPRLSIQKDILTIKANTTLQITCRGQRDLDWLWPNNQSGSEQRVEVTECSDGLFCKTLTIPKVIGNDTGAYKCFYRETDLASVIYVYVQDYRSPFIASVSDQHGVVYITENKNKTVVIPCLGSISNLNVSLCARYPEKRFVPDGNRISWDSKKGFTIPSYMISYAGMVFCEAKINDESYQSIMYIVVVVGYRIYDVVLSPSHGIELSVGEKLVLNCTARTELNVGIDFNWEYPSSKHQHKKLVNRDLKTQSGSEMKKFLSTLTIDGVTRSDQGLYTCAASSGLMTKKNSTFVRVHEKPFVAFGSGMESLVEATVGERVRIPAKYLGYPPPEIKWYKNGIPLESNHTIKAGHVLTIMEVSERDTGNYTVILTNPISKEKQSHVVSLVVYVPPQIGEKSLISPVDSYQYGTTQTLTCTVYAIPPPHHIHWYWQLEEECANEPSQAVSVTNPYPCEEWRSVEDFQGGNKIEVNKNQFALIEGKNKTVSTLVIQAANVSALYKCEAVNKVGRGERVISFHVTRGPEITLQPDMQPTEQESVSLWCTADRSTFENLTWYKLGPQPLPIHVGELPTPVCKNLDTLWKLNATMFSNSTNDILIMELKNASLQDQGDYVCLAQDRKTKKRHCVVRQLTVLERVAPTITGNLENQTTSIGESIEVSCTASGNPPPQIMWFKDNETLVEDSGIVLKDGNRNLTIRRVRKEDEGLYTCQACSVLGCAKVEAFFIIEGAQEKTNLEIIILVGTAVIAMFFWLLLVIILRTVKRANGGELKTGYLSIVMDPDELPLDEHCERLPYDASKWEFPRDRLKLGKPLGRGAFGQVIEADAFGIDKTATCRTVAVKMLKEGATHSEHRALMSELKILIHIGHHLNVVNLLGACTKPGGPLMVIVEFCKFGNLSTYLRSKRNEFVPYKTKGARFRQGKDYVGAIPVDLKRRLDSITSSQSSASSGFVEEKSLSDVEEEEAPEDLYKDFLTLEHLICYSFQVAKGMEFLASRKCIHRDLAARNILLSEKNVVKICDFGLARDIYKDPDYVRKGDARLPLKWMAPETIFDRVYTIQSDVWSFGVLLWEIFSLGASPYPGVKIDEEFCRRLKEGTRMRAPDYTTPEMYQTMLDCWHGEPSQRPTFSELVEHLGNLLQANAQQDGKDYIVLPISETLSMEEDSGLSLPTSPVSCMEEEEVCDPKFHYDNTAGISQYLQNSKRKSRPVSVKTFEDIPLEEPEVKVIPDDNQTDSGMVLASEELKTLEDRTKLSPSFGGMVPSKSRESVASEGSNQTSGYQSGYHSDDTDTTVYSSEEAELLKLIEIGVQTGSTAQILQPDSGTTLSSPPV
Protocol: To evaluate the VEGFR-2 activation ability of the VEGFR-2 agonist peptides of the present invention, VEGFR-2 phosphorylation was verified. HUVECs were cultured using EGM™ -2 Endothelial Cell Growth Medium-2 BulletKit (LONZA; CC-3162). After detaching cells using Tryple (Thermo Fisher Scientific), they were seeded into a 96-well PDL-coated plate (Corning: 354461) at a density of 24,000 cells per well and cultured for 2 days. For starvation, the medium was replaced with EBM-2 medium (LONZA) containing 0.5% FBS (Thermo Fisher Scientific), 0.1% heparin (included with the above LONZA CC-3162), and 0.1% gentamicin (Nacalai), and the cells were cultured for 18 hours. Subsequently, Recombinant Human VEGF165a Protein (R&D Systems) or the peptide was added, and the cells were cultured in a CO2 incubator at 37°C. After 10 minutes of stimulation, cells were lysed using the Lysis Buffer included in the AlphaLISA SureFire Ultra VEGFR-2 (p-Tyr1175) Assay Kit (PerkinElmer) to lyse the cells. The procedure was performed according to the kit protocol, and signal detection was performed using a SpectraMax Paradigm multimode microplate reader (Molecular Devices). The obtained signals were analyzed using GraphPad Prism, and % activity was calculated with the maximum signal induced by VEGF165a set as 100% and the unstimulated control as 0%.
The VEGF165a concentration was evaluated at five points (0.08, 0.31, 1.25, 5, 20 nM) using 1/4-fold dilutions starting from 20 nM to determine the maximum value (100%). Peptide concentrations tested were: 3.2, 16, 80 nM for dimer structure number 1; 10, 100 nM for dimer structures numbers 2-41; and 1.25, 5, 20 nM for dimer structures numbers 42-57. […]
Peptides showing 50% or more activity at 10 nM were designated 2-A, those showing 50% or more activity at 100 nM were designated 2-B, and those showing 1% or more but less than 50% activity at 100 nM were designated 2-C.
Peptides showing 50% or more activity at 1.25 nM were designated 3-A, those showing 50% or more activity at 5 nM were designated 3-B, those showing 50% or more activity at 20 nM were designated 3-C, and those showing 1% or more but less than 50% activity at 20 nM were designated 3-D.

VEGFR-2 [2] = biological target: T2, VEGFR-2 (human, UniProt P35968 20-1356); assay: cell-based or functional assay
T2 sequence (P35968 20-1356): as above

VEGFR-2 [3] = biological target: T2, VEGFR-2; assay: cell-based or functional assay; remark: listed apart in the source

Molecule | pVEGFR2 Assay Results (VEGFR-2 [1]) | pERK Assay Results (AlphaLISA p-Erk1/2, HUVEC) (VEGFR-2 [2]) [% activity at 10 nM] | proliferation (HUVEC, CellTiter-Glo) (VEGFR-2 [3])
CC(C)C[C@@H]1NC(=O)[C@H](CC(=O)O)NC(=O)[C@H](CC(=O)O)NC(=O)[C@H](CCCCNC(=O)CCOCCOCCOCCOCCOCCOCCOCCOCCOCCOCCOCCOCCOCCOCCOCCOCCOCCC(=O)NCCCC[C@@H]2NC(=O)[C@H](C(C)C)NC(=O)[C@H](CC(=O)O)NC(=O)[C@H](C(C)(C)C)NC(=O)[C@H](Cc3c[nH]c4ccccc34)NC(=O)[C@H](Cc3c[nH]c4ccccc34)NC(=O)CSC[C@@H](C(=O)NCC(N)=O)NC(=O)[C@H](CC(=O)O)NC(=O)[C@H](C(C)C)NC(=O)[C@H](Cc3ccc(NC(=N)N)cc3)NC(=O)[C@H](Cc3ccc(O)cc3)NC(=O)[C@H](CC(C)C)NC(=O)[C@H](CC(=O)O)NC(=O)[C@H](CC(=O)O)NC2=O)NC(=O)[C@H](C(C)C)NC(=O)[C@H](CC(=O)O)NC(=O)[C@H](C(C)(C)C)NC(=O)[C@H](Cc2c[nH]c3ccccc23)NC(=O)[C@H](Cc2c[nH]c3ccccc23)NC(=O)CSC[C@@H](C(=O)NCC(N)=O)NC(=O)[C@H](CC(=O)O)NC(=O)[C@H](C(C)C)NC(=O)[C@H](Cc2ccc(NC(=N)N)cc2)NC(=O)[C@H](Cc2ccc(O)cc2)NC1=O [Dimer Structure No. 43] (I: {CH2CO}-WW[Tle]DVKDDLY[Phe(4-guanidino)]VDCG-NH2 / II: {CH2CO}-WW[Tle]DVKDDLY[Phe(4-guanidino)]VDCG-NH2; linker I:6-II:6 via CO(CH2)2(OCH2CH2)17CO; thioether I:N-I:14, II:N-II:14) | 2-C (1% or more but less than 50% activity at 100 nM) | – | –
CC(C)C[C@@H]1NC(=O)[C@H](CC(=O)O)NC(=O)CNC(=O)[C@H](CCC(N)=O)NC(=O)[C@H](C(C)C)NC(=O)[C@H](CC(=O)O)NC(=O)[C@H](C(C)C)NC(=O)[C@H](Cc2c[nH]c3ccccc23)NC(=O)[C@H](Cc2c[nH]c3ccccc23)NC(=O)CSC[C@@H](C(=O)NCC(=O)NCCOCCOCCOCCOCCOCCOCCOCCOCCOCCOCCOCCOCCC(=O)NCCCC[C@H](NC(=O)CCOCCOCCOCCOCCOCCOCCOCCOCCOCCOCCOCCOCCNC(=O)CNC(=O)[C@@H]2CSCC(=O)N[C@@H](Cc3c[nH]c4ccccc34)C(=O)N[C@@H](Cc3c[nH]c4ccccc34)C(=O)N[C@@H](C(C)C)C(=O)N[C@@H](CC(=O)O)C(=O)N[C@@H](C(C)C)C(=O)N[C@@H](CCC(N)=O)C(=O)NCC(=O)N[C@@H](CC(=O)O)C(=O)N[C@@H](CC(C)C)C(=O)N[C@@H](Cc3ccc(O)cc3)C(=O)N[C@@H](Cc3ccccc3)C(=O)N[C@@H](C(C)C)C(=O)N[C@@H](CC(=O)O)C(=O)N2)C(N)=O)NC(=O)[C@H](CC(=O)O)NC(=O)[C@H](C(C)C)NC(=O)[C@H](Cc2ccccc2)NC(=O)[C@H](Cc2ccc(O)cc2)NC1=O [compound 7] (I: {CH2CO}-WWVDVQGDLYFVDCG[PEG12]K-NH2 / II: {CH2CO}-WWVDVQGDLYFVDCG[PEG12]; amide I:17-II:C; thioether I:N-I:14, II:N-II:14) | 2-C (1% or more but less than 50% activity at 100 nM) | – | –
CC(C)C[C@@H]1NC(=O)[C@H](CC(=O)O)NC(=O)[C@H](CC(=O)O)NC(=O)[C@H](CCC(N)=O)NC(=O)[C@H](C(C)C)NC(=O)[C@H](CC(=O)O)NC(=O)[C@H](C(C)C)NC(=O)[C@H](Cc2c[nH]c3ccccc23)NC(=O)[C@H](Cc2c[nH]c3ccccc23)NC(=O)CSC[C@@H](C(=O)NCC(=O)NCCOCCOCCOCCOCCOCCOCCOCCOCCOCCOCCOCCOCCC(=O)NCCCC[C@H](NC(=O)CCOCCOCCOCCOCCOCCOCCOCCOCCOCCOCCOCCOCCNC(=O)CNC(=O)[C@@H]2CSCC(=O)N[C@@H](Cc3c[nH]c4ccccc34)C(=O)N[C@@H](Cc3c[nH]c4ccccc34)C(=O)N[C@@H](C(C)C)C(=O)N[C@@H](CC(=O)O)C(=O)N[C@@H](C(C)C)C(=O)N[C@@H](CCC(N)=O)C(=O)N[C@@H](CC(=O)O)C(=O)N[C@@H](CC(=O)O)C(=O)N[C@@H](CC(C)C)C(=O)N[C@@H](Cc3ccc(O)cc3)C(=O)N[C@@H](Cc3ccccc3)C(=O)N[C@@H](C(C)C)C(=O)N[C@@H](CO)C(=O)N2)C(N)=O)NC(=O)[C@H](CO)NC(=O)[C@H](C(C)C)NC(=O)[C@H](Cc2ccccc2)NC(=O)[C@H](Cc2ccc(O)cc2)NC1=O [compound 11] (I: {CH2CO}-WWVDVQDDLYFVSCG[PEG12]K-NH2 / II: {CH2CO}-WWVDVQDDLYFVSCG[PEG12]; amide I:17-II:C; thioether I:N-I:14, II:N-II:14) | 2-C (1% or more but less than 50% activity at 100 nM) | – | –
CC(C)C[C@@H]1NC(=O)[C@H](CC(=O)O)NC(=O)[C@H](CC(=O)O)NC(=O)[C@H](CCCCNC(=O)CCOCCOCCOCCOCCOCCOCCOCCOCCOCCOCCOCCOCCOCCOCCOCCOCCOCCC(=O)NCCCC[C@@H]2NC(=O)[C@H](C(C)C)NC(=O)[C@H](CC(=O)O)NC(=O)[C@H](C(C)(C)C)NC(=O)[C@H](Cc3c[nH]c4ccccc34)NC(=O)[C@H](Cc3ccc(OCC(=O)O)cc3)NC(=O)CSC[C@@H](C(=O)NCC(N)=O)NC(=O)[C@H](CC(=O)O)NC(=O)[C@H](CCc3ccc(O)cc3)NC(=O)[C@H](Cc3ccccc3)NC(=O)[C@H](Cc3ccc(O)cc3)NC(=O)[C@H](CC(C)C)NC(=O)[C@H](CC(=O)O)NC(=O)[C@H](CC(=O)O)NC2=O)NC(=O)[C@H](C(C)C)NC(=O)[C@H](CC(=O)O)NC(=O)[C@H](C(C)(C)C)NC(=O)[C@H](Cc2c[nH]c3ccccc23)NC(=O)[C@H](Cc2ccc(OCC(=O)O)cc2)NC(=O)CSC[C@@H](C(=O)NCC(N)=O)NC(=O)[C@H](CC(=O)O)NC(=O)[C@H](CCc2ccc(O)cc2)NC(=O)[C@H](Cc2ccccc2)NC(=O)[C@H](Cc2ccc(O)cc2)NC1=O [compound 24] (I: {CH2CO}-Y(Carboxymethyl)W[Tle]DVKDDLYF[hTyr]DCG-NH2 / II: {CH2CO}-Y(Carboxymethyl)W[Tle]DVKDDLYF[hTyr]DCG-NH2; linker I:6-II:6 via CO(CH2)2(OCH2CH2)17CO; thioether I:N-I:14, II:N-II:14) | 2-B (50% or more activity at 100 nM) | – | –
CC(C)C[C@@H]1NC(=O)[C@H](CC(=O)O)NC(=O)[C@H](CC(=O)O)NC(=O)[C@H](CCCCNC(=O)CCOCCOCCOCCOCCOCCOCCOCCOCCOCCOCCOCCOCCOCCOCCOCCOCCOCCC(=O)NCCCC[C@@H]2NC(=O)[C@H](C(C)C)NC(=O)[C@H](CC(=O)O)NC(=O)[C@H](C3CCCCC3)NC(=O)[C@H](Cc3c[nH]c4ccccc34)NC(=O)[C@H](Cc3c[nH]c4ccccc34)NC(=O)CSC[C@@H](C(=O)NCC(N)=O)NC(=O)[C@H](CC(=O)O)NC(=O)[C@H](CCc3ccc(O)cc3)NC(=O)[C@H](Cc3ccccc3)NC(=O)[C@H](Cc3ccc(O)cc3)NC(=O)[C@H](CC(C)C)NC(=O)[C@H](CC(=O)O)NC(=O)[C@H](CC(=O)O)NC2=O)NC(=O)[C@H](C(C)C)NC(=O)[C@H](CC(=O)O)NC(=O)[C@H](C2CCCCC2)NC(=O)[C@H](Cc2c[nH]c3ccccc23)NC(=O)[C@H](Cc2c[nH]c3ccccc23)NC(=O)CSC[C@@H](C(=O)NCC(N)=O)NC(=O)[C@H](CC(=O)O)NC(=O)[C@H](CCc2ccc(O)cc2)NC(=O)[C@H](Cc2ccccc2)NC(=O)[C@H](Cc2ccc(O)cc2)NC1=O [compound 25] (I: {CH2CO}-WW[Chg]DVKDDLYF[hTyr]DCG-NH2 / II: {CH2CO}-WW[Chg]DVKDDLYF[hTyr]DCG-NH2; linker I:6-II:6 via CO(CH2)2(OCH2CH2)17CO; thioether I:N-I:14, II:N-II:14) | 2-C (1% or more but less than 50% activity at 100 nM) | – | –
{CH2CO}-WWVDVKDDLYFVDCG-NH2 (thioether N-14; not fully specified (residue 6); also: homodimer: Lys6 joined to Lys6 of second copy by cPEG13c (Linker Structure No. 3)) [Peptide complex Dimer Structure No. 14] | – | ≥ 50 | < 50 % activity at 100 nM
{CH2CO}-WW[Chg]DVKDDLYF[hTyr]DCG-NH2 (thioether N-14; not fully specified (residue 6); also: homodimer: Lys6 joined to Lys6 of second copy by cPEG17c (Linker Structure No. 4)) [Peptide complex Dimer Structure No. 25] | – | ≥ 50 | ≥ 50 % activity at 10 nM
